Assay results from the NIST ThermoML archive (doi:10.1016/j.jct.2006.03.015).

Test: mn = molality of the nth substance listed, in mol/kg
Conditions: 101 kPa, Liquid; for apparent molar heat capacity: Flow calorimetry

CC(=O)N[C@@H](CC(N)=O)C(N)=O [(S)-2-acetamidosuccinamide] + O
Conditions	apparent molar heat capacity [J/K/mol]	mass density [kg/m3]
288.15 K, m1 = 0.0291	307.3	1000.53
288.15 K, m1 = 0.03172	310	1000.65
288.15 K, m1 = 0.0368	307.6	1000.9
288.15 K, m1 = 0.03929	308.2	1001.03
288.15 K, m1 = 0.04222	309.5	1001.17
288.15 K, m1 = 0.04651	305.7	1001.38
288.15 K, m1 = 0.05278	306.6	1001.68
288.15 K, m1 = 0.05772	302.8	1001.92
288.15 K, m1 = 0.06036	303.7	1002.04
288.15 K, m1 = 0.06513	306.5	1002.28
288.15 K, m1 = 0.07059	308	1002.54
298.15 K, m1 = 0.02807	333.1	998.384
298.15 K, m1 = 0.03296	329.6	998.617
298.15 K, m1 = 0.0381	333.3	998.865
298.15 K, m1 = 0.04348	330.6	999.124
298.15 K, m1 = 0.04618	330.2	999.246
298.15 K, m1 = 0.05136	330.7	999.495
298.15 K, m1 = 0.05666	333.4	999.741
298.15 K, m1 = 0.06197	330.9	–
298.15 K, m1 = 0.06198	333	999.991
298.15 K, m1 = 0.06667	332.5	1000.22
298.15 K, m1 = 0.07247	331	1000.49
313.15 K, m1 = 0.03215	353.5	993.709
313.15 K, m1 = 0.03777	356	993.972
313.15 K, m1 = 0.04273	355.6	994.186
313.15 K, m1 = 0.04501	361.1	994.291
313.15 K, m1 = 0.0481	358.6	994.444
313.15 K, m1 = 0.05166	353.7	994.598
313.15 K, m1 = 0.05423	357.7	994.726
313.15 K, m1 = 0.06055	358.6	995.006
313.15 K, m1 = 0.06612	356.4	995.264
313.15 K, m1 = 0.07077	355.6	995.471
313.15 K, m1 = 0.07187	357.7	995.524
328.15 K, m1 = 0.03205	378.3	987.15
328.15 K, m1 = 0.03805	377.4	987.418
328.15 K, m1 = 0.0428	373.4	987.633
328.15 K, m1 = 0.04683	379.4	987.812
328.15 K, m1 = 0.05183	377.2	988.042
328.15 K, m1 = 0.05694	380.7	988.263
328.15 K, m1 = 0.06115	377.1	988.455
328.15 K, m1 = 0.06488	376.5	988.623
328.15 K, m1 = 0.06958	380.2	988.834
